From patent publication US8772029B2, “Modulation of oocyte meiotic progression and oocyte activation” (Northwestern University, priority 2011, dated 2014)

Experiments:
oocytes = conditions: literature (Kim et al 2010, Bernhardt et al 2011); cited from earlier work
Emi2 = molecular target: T1, Emi2 (Mus musculus, UniProt Q8CDI2); assay: MI arrest induced by Emi2 cRNA injected into GV oocytes, IVM with or without TPEN; assay type: cell-based; conditions: IVM medium with 10 μM TPEN 14 h
T1 construct: expressed in transfected cells; host or cells: mouse oocytes microinjected with in vitro transcribed cRNA (pIVT vector)
T1 sequence (Q8CDI2 1-640): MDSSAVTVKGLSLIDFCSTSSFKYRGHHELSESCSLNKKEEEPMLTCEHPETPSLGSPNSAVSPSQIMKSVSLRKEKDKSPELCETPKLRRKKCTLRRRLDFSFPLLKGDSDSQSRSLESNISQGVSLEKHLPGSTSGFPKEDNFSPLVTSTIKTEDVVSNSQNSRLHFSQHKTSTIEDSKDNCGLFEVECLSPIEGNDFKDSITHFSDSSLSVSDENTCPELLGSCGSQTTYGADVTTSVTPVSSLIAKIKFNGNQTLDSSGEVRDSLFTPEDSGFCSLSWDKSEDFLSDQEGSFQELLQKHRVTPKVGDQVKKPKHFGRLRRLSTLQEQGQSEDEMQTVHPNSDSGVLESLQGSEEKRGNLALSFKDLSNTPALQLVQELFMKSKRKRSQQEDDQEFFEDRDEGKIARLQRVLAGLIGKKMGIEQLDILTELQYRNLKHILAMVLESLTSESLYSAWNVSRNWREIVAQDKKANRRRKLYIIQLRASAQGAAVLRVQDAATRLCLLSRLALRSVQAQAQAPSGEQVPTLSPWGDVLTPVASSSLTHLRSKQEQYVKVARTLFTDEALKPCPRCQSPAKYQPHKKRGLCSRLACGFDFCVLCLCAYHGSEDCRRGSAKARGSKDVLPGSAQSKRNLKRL
Description: Oocytes were denuded of cumulus cells and fixed in a microtubule stabilizing buffer (Ibanez et al., 2005) containing 2% formaldehyde and 1% Triton X-100 for 30 min at 37° C. Oocytes were washed and blocked in PBS containing 0.1M glycine, 3mg/mL BSA, 0.01% Tween 20, and 0.01% sodium azide for at least 1 h and were stored in blocking solution at 4° C. for up to 2 weeks. Oocytes were incubated with anti-tubulin antibody (1:100) for 1 h at 37C. followed by three washes in blocking solution. They were then incubated for 1 h in AlexaFluor-488 conjugated anti-mouse secondary antibody (5μg/mL) and rhodamine-phalloidin (2U/mL), washed three additional times, and mounted in VECTASHIELD with DAPI. Microscopy was performed using a Leica SP5 inverted laser-scanning confocal microscope with a 63x oil immersion objective (Leica Microsystems, Heidelberg, Germany). Images were processed using LAS AF software (Leica Microsystems).
Microinjection was performed essentially as previously described (Bernhardt et al., 2010). GV intact oocytes were collected and manually denuded of cumulus cells in L-15/FBS containing 0.2 mM IBMX, then transferred to drops of L-15 medium containing 0.05% (w/v) polyvinyl alcohol (PVA) and 0.5% (v/v) penicillin-streptomycin (Invitrogen) under light mineral oil on a heated stage for injection. […]

MII eggs = assay: Activation of in vivo ovulated MII eggs (SrCl2, TPEN, ZnPT pre-treatment)
Description: Ovulated MII eggs were collected as described above. Eggs were transferred to KSOM medium with or without 10 μM ZnPT (1:1000 dilution of a 10 mM stock in DMSO) for exactly 5 minutes. Eggs were then washed in KSOM and allowed to recover for 10-15 minutes prior to activation. For SrCl2 activation, eggs were transferred to drops of calcium-free KSOM containing 10 mM SrCl2 for 2 hours, followed by 4 additional hours of culture in calcium-containing KSOM without SrCl2. TPEN activation was performed as previously described (Kim et al., 2011); eggs were cultured for 6 hours in KSOM containing 10 μM TPEN. Unactivated controls were cultured in KSOM for the same 6 hour time period to assess levels of spontaneous parthenogenesis.
MII eggs were treated with the ionophore zinc pyrithione (ZnPT) for 5 minutes to increase intracellular zinc. Following a 10-15 minute recovery period, eggs were then treated with activating agents SrCl2 or TPEN.

In the case of `c1ccc(CN(CCN(Cc2ccccn2)Cc2ccccn2)Cc2ccccn2)nc1` [TPEN, N,N,N′,N′-tetrakis(2-pyridylmethyl)ethylenediamine], the “meiotic arrest on TPEN treatment during the MI-MII transition” value (oocytes) is given as “causes meiotic arrest at telophase-I”, the “oocytes arrested at MI” value (Emi2) is given as 44% and the “egg activation by TPEN after ZnPT pre-treatment” value (MII eggs; MII eggs, 10 μM ZnPT 5 minutes, then 10 μM TPEN 6 h) is given as “caused activation”. The “egg activation (second polar body and PN or PN-like structures)” value (MII eggs; control MII eggs, by 6 hours post activation, 10 mM SrCl2 2 h or 10 μM TPEN 6 h) was “activated normally”.
